{"source": "patent US11890288B2", "about": "“Sulfonamide or sulfinamide compound having effect of inducing BRD4 protein degradation and pharmaceutical use thereof” (MITSUBISHI TANABE PHARMA CORPORATION, priority 2020, dated 2024)", "key": {"[1]": {"test_system": "human prostate cancer LNCaP cells", "test": "Cytotoxic action on LNCaP cells (WST-8, 96 hr)", "assay_type": "cell-based", "settings": "96 hr culture", "procedure,_shortened": "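Overnight pre-culture (10% FBS/RPMI1640, 37° C, 5% CO2) → compound from DMSO stock diluted in medium → 96 hr → WST-8 viable count. IC50 = conc. at 50% survival vs untreated, linear interpolation. (+)-JQ1 as positive control.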"}, "BRD4 protein [2]": {"biological_target": "T1, BRD4 protein (Homo sapiens (Human), UniProt O60885)", "test": "BRD4 protein degradation inducing action in LNCaP cells (immunofluorescence, 6 hr)", "assay_type": "cell-based", "settings": "anti-BRD4 fluorescence intensity", "procedure,_shortened": "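LNCaP cells in 10% FBS/RPMI1640 exposed to compound for 6 hr, fixed, permeabilized and immunostained for BRD4 with Alexa Fluor 546 secondary; fluorescence (ex 560, em 572 nm) read by imaging. DC50 = concentration giving 50% of untreated signal, interpolated linearly between the two bracketing points.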"}, "[3]": {"test_system": "Human breast cancer MDA-MB-436 cells", "test": "Cytotoxic action on MDA-MB-436 cells (WST-8, 96 hr)", "assay_type": "cell-based", "settings": "Homo sapiens", "description": "(§1) The cytotoxic action of the compound of the present invention against cancer cells that acquired resistance to conventional BRD4 protein degradation inducing agents was evaluated in vitro. In this experiment, ARV-771 (Proc Natl Acad Sci USA. volume 113, pages 7124-7129 (28 Jun. 2016)) and MZ1 (ACS Chem Biol. Volume 10, pages 1770-1777 (21 Aug. 2015)), in which a ligand for VHL and BRD4 protein inhibitor are linked, were used as a conventional BRD4 protein degradation inducing agent serving as a comparison control. Human breast cancer MDA-MB-436 cells and MDA-MB-436 cells that acquired resistance to conventional BRD4 protein degradation inducing agents (MDA-MB-436 w/o2 cells) were suspended in 10% FBS/RPMI1640, seeded in a 96 well plate and cultured at 5% CO2, 37° C. overnight. A test compound dissolved in DMSO was diluted with 10% FBS/RPMI1640 and added and the cells were further cultured for 96 hr. After culturing, the viable cell number was measured using a cell number measurement WST-8 kit (Kishida Chemical Co., Ltd.). As a control, the measurement was performed under conditions free of the test compound. The cytotoxic activity of the compound of the present invention against each cell is shown in IC50 value in Table 4. The IC50 value is a concentration of the compound showing 50% cell survival rate when the cell survival rate thereof under compound untreated condition is 100%. It was calculated from the straight line connecting the cell survival rate at two points enclosing the 50% cell survival rate and the compound concentration. In addition, the tolerance (fold) was calculated by dividing the IC50 value in MDA-MB-436 w/o2 cells by the IC50 value in MDA-MB-436 cells."}, "MDA-MB-436 w/o2 cells": {"test_system": "MDA-MB-436 w/o2 cells", "test": "Cytotoxic action on MDA-MB-436 w/o2 cells that acquired resistance to conventional BRD4 degraders (WST-8, 96 hr)", "assay_type": "cell-based, human", "description": "as §1"}, "BRD4 protein [4]": {"biological_target": "T1, BRD4 protein", "test": "Inhibitory action on binding of BRD4 protein and acetylated histone H4 (TR-FRET)", "settings": "BRD4-1 (GST) and acetylated histone H4 peptide, 3 hr", "description": "The inhibitory action of the compound of the present invention on the binding of BRD4 protein and a ligand thereof (acetylated histone H4) was evaluated by the time-resolved fluorescence resonance energy transfer (TR-FRET) method using EPIgeneous™ Binding Domain Kit A (Cisbio), BRD4-1 (GST) (Reaction Biology Corp) and [Lys(Ac)5/8/12/16]-Histone H4(1-21)-GGK (Biotin) (Eurogentec). In this experiment, (+)-JQ1 (Nature volume 468, pages 1067-1073 (23 Dec. 2010)) known to have an inhibitory activity on the binding of BRD4 protein and acetylated histone H4 therefor was used as a positive control drug. A test compound dissolved in DMSO was diluted with attached Diluent Buffer, added to a 384 well white plate, and BRD4-1 (GST) and [Lys(Ac)5/8/12/16]-Histone H4(1-21)-GGK (Biotin) were further added. Thereafter, Streptavidin-d2 conjugate and Anti-GST-Eu^3+ Cryptate Conjugate were added and the cells were incubated at room temperature for 3 hr. The binding amount of the BRD4 protein and acetylated histone H4 was measured as the fluorescence intensity (excitation: 314 nm/emission: 620 nm and excitation: 314 nm/emission: 665 nm). […] It was calculated from the straight line connecting the degradation rate at two points enclosing the 50% fluorescence intensity and the compound concentration."}}, "data": [{"smiles": "COC(=O)C[C@@H]1N=C(c2ccc(-c3ccc(C(=O)NCCc4ccc(S(=O)(=O)Nc5ccc(C)c6c(C#N)c[nH]c56)cc4)cc3)cc2)c2c(sc(C)c2C)-n2c(C)nnc21", "note": "[Example 11, methyl [(6S)-4-{4′-[(2-{4-[(3-cyano-4-methyl-1H-indol-7-yl)sulfamoyl]phenyl}ethyl)carbamoyl][1,1′-biphenyl]-4-yl}-2,3,9-trimethyl-6H-thieno[3,2-f][1,2,4]triazolo[4,3-a][1,4]diazepin-6-yl]acetate]", "values": [{"measurement": "IC50", "setting": "[1]", "result": 0.074, "unit": "nM"}, {"measurement": "DC50", "setting": "BRD4 protein [2]", "result": 0.083, "unit": "nM"}, {"measurement": "IC50", "setting": "[3]", "result": 0.27, "unit": "nM"}, {"measurement": "IC50", "setting": "MDA-MB-436 w/o2 cells; Homo sapiens, MDA-MB-436 w/o2 cells, 96 hr", "result": 0.31, "unit": "nM"}, {"measurement": "resistance", "setting": "MDA-MB-436 w/o2 cells; IC50 in MDA-MB-436 w/o2 cells divided by IC50 in MDA-MB-436 cells", "result": 1.2, "unit": "fold"}, {"measurement": "IC50", "setting": "BRD4 protein [4]", "result": 5.7, "unit": "nM"}]}]}
